Like-named read-outs stand apart in the source and are kept apart here.
Target: T1, horseradish peroxidase (HRP) tagged delF508-CFTR (Homo sapiens, UniProt P13569, DEL508-508)
T1 construct: expressed in transfected cells
Experiment: Measurement of delF508-CFTR-HRP surface expression in CFBE41o- cells;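 as to DelF508-CFTR-HRP Amax %: percent efficacy relative to reference corrector lumacaftor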
Format: cell-based
Details: for Emax: read-out: DelF508-CFTR-HRP Amax %; for EC50: read-out: DelF508-CFTR-HRP EC50
Method in brief: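 CFBE41o- bronchial epithelial cells stably expressing delF508-CFTR with HRP in the fourth extracellular loop; expression induced 48h with 500 ng/mL doxycycline, then compounds added (top 10 μM, 10-point 3-fold series, ≤0.5% DMSO) for 24h at 37° C. Surface HRP measured by luminescence with cell-impermeant substrate; EC50 from logistic fit of triplicates, plate-normalized to lowest concentration; efficacy also relative to a reference corrector.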

[1] = delF508-CFTR-HRP surface expression, CFBE41o- cells
[2] = CFBE41o- cells, mean of at least two replicates
[3] = CFBE41o- cells, surface expression Amax

T1 sequence (P13569 with tags, fused parts or gaps DEL508-508): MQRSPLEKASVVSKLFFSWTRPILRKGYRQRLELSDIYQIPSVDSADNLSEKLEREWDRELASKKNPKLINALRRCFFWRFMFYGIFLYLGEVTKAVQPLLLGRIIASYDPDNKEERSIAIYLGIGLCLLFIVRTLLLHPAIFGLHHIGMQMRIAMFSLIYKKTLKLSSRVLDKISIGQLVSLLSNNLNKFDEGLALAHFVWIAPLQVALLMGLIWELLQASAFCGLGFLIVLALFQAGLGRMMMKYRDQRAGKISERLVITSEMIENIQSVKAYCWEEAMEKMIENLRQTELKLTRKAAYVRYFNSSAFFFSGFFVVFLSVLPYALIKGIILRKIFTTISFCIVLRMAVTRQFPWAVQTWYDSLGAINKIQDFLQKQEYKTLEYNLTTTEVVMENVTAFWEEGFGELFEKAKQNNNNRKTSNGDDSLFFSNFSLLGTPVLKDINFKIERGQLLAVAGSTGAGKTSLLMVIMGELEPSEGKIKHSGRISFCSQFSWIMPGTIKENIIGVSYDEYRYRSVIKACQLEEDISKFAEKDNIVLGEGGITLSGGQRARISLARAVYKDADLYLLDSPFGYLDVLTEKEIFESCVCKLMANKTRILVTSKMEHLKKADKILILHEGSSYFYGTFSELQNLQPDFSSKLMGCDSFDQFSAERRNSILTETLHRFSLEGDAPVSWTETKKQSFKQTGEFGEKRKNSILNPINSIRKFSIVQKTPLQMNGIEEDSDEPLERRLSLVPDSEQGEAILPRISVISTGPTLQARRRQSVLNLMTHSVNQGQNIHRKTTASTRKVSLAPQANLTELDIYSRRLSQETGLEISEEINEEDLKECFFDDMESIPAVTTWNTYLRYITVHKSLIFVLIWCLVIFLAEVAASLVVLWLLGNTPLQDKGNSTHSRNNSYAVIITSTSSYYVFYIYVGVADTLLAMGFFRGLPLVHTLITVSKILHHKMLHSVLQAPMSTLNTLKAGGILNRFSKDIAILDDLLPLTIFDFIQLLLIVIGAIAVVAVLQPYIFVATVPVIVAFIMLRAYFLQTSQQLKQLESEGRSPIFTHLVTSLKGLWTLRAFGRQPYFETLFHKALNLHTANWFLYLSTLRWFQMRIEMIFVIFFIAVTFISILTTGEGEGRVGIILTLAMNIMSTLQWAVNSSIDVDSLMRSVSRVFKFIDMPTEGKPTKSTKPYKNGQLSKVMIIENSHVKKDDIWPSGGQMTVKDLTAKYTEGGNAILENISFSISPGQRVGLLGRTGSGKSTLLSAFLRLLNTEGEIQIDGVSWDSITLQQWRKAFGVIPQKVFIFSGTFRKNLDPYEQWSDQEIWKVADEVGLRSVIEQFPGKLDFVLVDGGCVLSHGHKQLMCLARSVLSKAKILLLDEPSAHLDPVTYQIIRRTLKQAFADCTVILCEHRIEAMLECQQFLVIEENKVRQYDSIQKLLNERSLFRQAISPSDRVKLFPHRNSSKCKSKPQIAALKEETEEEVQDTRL

Compound | Emax [1] | EC50 [1] | EC50 [2] | Emax [3] | Emax (CFBE41o-)
CC(C)c1ccccc1-c1nc(NS(=O)(=O)c2cccc(N3CCCC(C)(C(=O)O)C3)n2)ccc1C(F)(F)F (stereo not shown) [Example 377, 1-(6-(N-(6-(2-isopropylphenyl)-5-(trifluoromethyl)pyridin-2-yl)sulfamoyl)pyridin-2-yl)-3-methylpiperidine-3-carboxylic Acid] | – | 738 nM | – | – | –
CC1(C(=O)O)CCN(c2cc(S(=O)(=O)Nc3ccc(C(F)(F)F)c(-c4ccccc4C4CCC4)n3)ccn2)CC1 [Example 378, 1-(4-(N-(6-(2-cyclobutylphenyl)-5-(trifluoromethyl)pyridin-2-yl)sulfamoyl)pyridin-2-yl)-4-methylpiperidine-4-carboxylic Acid] | – | – | 1360 nM | 272% | –
CC1(C(=O)O)CCN(c2cccc(S(=O)(=O)Nc3ccc(C(F)(F)F)c(-c4ccccc4C4CCCC4)n3)n2)CC1 [Example 379, 1-(6-(N-(6-(2-cyclopentylphenyl)-5-(trifluoromethyl)pyridin-2-yl)sulfamoyl)pyridin-2-yl)-4-methylpiperidine-4-carboxylic Acid] | – | – | 1080 nM | – | 646%
CCc1ccccc1-c1nc(S(=O)(=O)Nc2cccc(N3CCC(C)(C(=O)O)CC3)n2)ccc1C(F)(F)F [Example 380, 1-(6-(6-(2-ethylphenyl)-5-(trifluoromethyl)pyridine-2-sulfonamido)pyridin-2-yl)-4-methylpiperidine-4-carboxylic Acid] | – | – | 2660 nM | 42.3% | –
CC1(C(=O)O)CCN(c2cccc(S(=O)(=O)Nc3ccc(C(F)(F)F)c(-c4ccccc4OCC(F)(F)F)n3)n2)CC1 [Example 381, 4-methyl-1-(6-(N-(6-(2-(2,2,2-trifluoroethoxy)phenyl)-5-(trifluoromethyl)pyridin-2-yl)sulfamoyl)pyridin-2-yl)piperidine-4-carboxylic Acid] | – | – | 2510 nM | 284% | –
CC(C)COc1ccccc1-c1nc(NS(=O)(=O)c2cccc(N3CCC(C)(C(=O)O)CC3)n2)ccc1C(F)(F)F [Example 382, 1-(6-(N-(6-(2-isobutoxyphenyl)-5-(trifluoromethyl)pyridin-2-yl)sulfamoyl)pyridin-2-yl)-4-methylpiperidine-4-carboxylic Acid] | – | – | 711 nM | 504% | –
C[C@@]1(C(=O)O)CCCN(c2cccc(S(=O)(=O)Nc3ccc(C(F)(F)F)c(-c4ccccc4C4CCC4)n3)n2)C1 [Example 383, (R)-1-(6-(N-(6-(2-cyclobutylphenyl)-5-(trifluoromethyl)pyridin-2-yl)sulfamoyl)pyridin-2-yl)-3-methylpiperidine-3-carboxylic Acid] | – | – | 498 nM | – | –
CC(C)COc1ccccc1-c1nc(NS(=O)(=O)c2cccc(N3CCCC(C)(C(=O)O)C3)n2)ccc1C(F)(F)F (stereo not shown) [Example 386, 1-(6-(N-(6-(2-isobutoxyphenyl)-5-(trifluoromethyl)pyridin-2-yl)sulfamoyl)pyridin-2-yl)-3-methylpiperidine-3-carboxylic Acid] | – | – | 605 nM | – | –
CCc1ccccc1-c1nc(NS(=O)(=O)c2cccc(N3CCCC(C)(C(=O)O)C3)n2)ccc1Cl (stereo not shown) [Example 387, 1-(6-(N-(5-chloro-6-(2-ethylphenyl)pyridin-2-yl)sulfamoyl)pyridin-2-yl)-3-methylpiperidine-3-carboxylic Acid] | – | – | 1630 nM | 588% | –
CC(C)c1ccccc1-c1nc(NS(=O)(=O)c2cccc(N3CCCC(C)(C(=O)O)C3)n2)ccc1Cl (stereo not shown) [Example 388, 1-(6-(N-(5-chloro-6-(2-isopropylphenyl)pyridin-2-yl)sulfamoyl)pyridin-2-yl)-3-methylpiperidine-3-carboxylic Acid] | – | – | 1020 nM | 928% | –
CC1(C(=O)O)CCCN(c2cccc(S(=O)(=O)Nc3ccc(Cl)c(-c4ccccc4C4CCC4)n3)n2)C1 (stereo not shown) [Example 389, 1-(6-(N-(5-chloro-6-(2-cyclobutylphenyl)pyridin-2-yl)sulfamoyl)pyridin-2-yl)-3-methylpiperidine-3-carboxylic Acid] | – | – | 1040 nM | 749% | –
CC1(C(=O)O)CCCN(c2cccc(S(=O)(=O)Nc3ccc(Cl)c(-c4ccccc4C(C)(C)C)n3)n2)C1 (stereo not shown) [Example 390, 1-(6-(N-(6-(2-(tert-butyl)phenyl)-5-chloropyridin-2-yl)sulfamoyl)pyridin-2-yl)-3-methylpiperidine-3-carboxylic Acid] | – | – | 761 nM | 889% | –
C[C@@]1(C(=O)O)CCCN(c2cccc(S(=O)(=O)Nc3ccc(Cl)c(-c4ccccc4C4CCC4)n3)n2)C1 [Example 391, (R)-1-(6-(N-(5-chloro-6-(2-cyclobutylphenyl)pyridin-2-yl)sulfamoyl)pyridin-2-yl)-3-methylpiperidine-3-carboxylic Acid] | – | – | 530 nM | 503% | –
CC(C)c1ccccc1-c1nc(NS(=O)(=O)c2cccc(N3CCC[C@@](C)(C(=O)O)C3)n2)ccc1Cl [Example 392, (R)-1-(6-(N-(5-chloro-6-(2-isopropylphenyl)pyridin-2-yl)sulfamoyl)pyridin-2-yl)-3-methylpiperidine-3-carboxylic Acid] | – | – | 527 nM | 460% | –
CCc1ccccc1-c1nc(NS(=O)(=O)c2cccc(N3CCC[C@@](C)(C(=O)O)C3)n2)ccc1Cl [Example 393, (R)-1-(6-(N-(5-chloro-6-(2-ethylphenyl)pyridin-2-yl)sulfamoyl)pyridin-2-yl)-3-methylpiperidine-3-carboxylic Acid] | – | – | 1040 nM | 680% | –

More lines, main results first:

Emax [1] | EC50 [1] | EC50 [2] | Emax [3] | Compound | Emax (CFBE41o-)
118% | 2800 nM | – | – | Cc1ccccc1-c1nc(NS(=O)(=O)c2cccc(N3CCNC[C@@H]3C(=O)O)n2)ccc1C(F)(F)F [Example 353, (2R)-1-(6-{[6-(2-methylphenyl)-5-(trifluoromethyl)pyridin-2-yl]sulfamoyl}pyridin-2-yl)piperazine-2-carboxylic Acid] | –
154% | 2740 nM | – | – | Cc1ccccc1-c1nc(NS(=O)(=O)c2cccc(N3CCNC[C@H]3C(=O)O)n2)ccc1C(F)(F)F [Example 354, (2S)-1-(6-{[6-(2-methylphenyl)-5-(trifluoromethyl)pyridin-2-yl]sulfamoyl}pyridin-2-yl)piperazine-2-carboxylic Acid] | –
140% | 3690 nM | – | – | Cc1ccccc1-c1nc(NS(=O)(=O)c2cccc(N[C@H]3C[C@H](C(=O)O)C3)n2)ccc1C(F)(F)F [Example 355, (1r,3r)-3-((6-(N-(6-(o-tolyl)-5-(trifluoromethyl)pyridin-2-yl)sulfamoyl)pyridin-2-yl)amino)cyclobutanecarboxylic Acid] | –
616% | 705 nM | – | – | CC1(C(=O)O)CCN(c2cccc(S(=O)(=O)Nc3ccc(C(F)(F)F)c(-c4ccccc4C4CCC4)n3)n2)CC1 [Example 363, 1-(6-(N-(6-(2-cyclobutylphenyl)-5-(trifluoromethyl)pyridin-2-yl)sulfamoyl)pyridin-2-yl)-4-methylpiperidine-4-carboxylic Acid] | –
231% | 1590 nM | – | – | Cc1ccccc1-c1nc(NS(=O)(=O)c2cccc(N[C@H]3CC[C@H](C(=O)O)CC3)n2)ccc1C(F)(F)F [Example 364, (1r,4r)-4-((6-(N-(6-(o-tolyl)-5-(trifluoromethyl)pyridin-2-yl)sulfamoyl)pyridin-2-yl)amino)cyclohexanecarboxylic Acid] | –
166% | 1890 nM | – | – | Cc1ccccc1-c1nc(NS(=O)(=O)c2cccc(N[C@H]3C[C@](C)(C(=O)O)C3)n2)ccc1C(F)(F)F [Example 365, (1r,3s)-1-methyl-3-[(6-{[6-(2-methylphenyl)-5-(trifluoromethyl)pyridin-2-yl]sulfamoyl}pyridin-2-yl)amino]cyclobutane-1-carboxylic Acid] | –
962% | 1720 nM | – | – | CCc1ccccc1-c1nc(NS(=O)(=O)c2cccc(N3CCC[C@@H](C(=O)O)C3)n2)ccc1C(F)(F)F [Example 369, (R)-1-(6-(N-(6-(2-ethylphenyl)-5-(trifluoromethyl)pyridin-2-yl)sulfamoyl)pyridin-2-yl)piperidine-3-carboxylic Acid] | –
554% | 2250 nM | – | – | Cc1ccccc1-c1nc(NS(=O)(=O)c2cccc(NC3CCC(C(=O)O)CC3)n2)ccc1C(F)(F)F (stereo not shown) [Example 372, 4-((6-(N-(6-(o-tolyl)-5-(trifluoromethyl)pyridin-2-yl)sulfamoyl)pyridin-2-yl)amino)cyclohexanecarboxylic Acid] | –
629% | 913 nM | – | – | CC(C)c1ccccc1-c1nc(NS(=O)(=O)c2cccc(N3CCC[C@H](C(=O)O)C3)n2)ccc1C(F)(F)F [Example 376, (S)-1-(6-(N-(6-(2-isopropylphenyl)-5-(trifluoromethyl)pyridin-2-yl)sulfamoyl)pyridin-2-yl)piperidine-3-carboxylic Acid] | –
– | – | 501 nM | – | CC(C)c1ccccc1-c1nc(NS(=O)(=O)c2cccc(N3CCC[C@@](C)(C(=O)O)C3)n2)ccc1C(F)(F)F [Example 384, (R)-1-(6-(N-(6-(2-isopropylphenyl)-5-(trifluoromethyl)pyridin-2-yl)sulfamoyl)pyridin-2-yl)-3-methylpiperidine-3-carboxylic Acid] | –
– | – | 810 nM | 668% | CC(C)c1ccccc1-c1nc(NS(=O)(=O)c2cccc(N3CCC[C@](C)(C(=O)O)C3)n2)ccc1C(F)(F)F [Example 385, (S)-1-(6-(N-(6-(2-isopropylphenyl)-5-(trifluoromethyl)pyridin-2-yl)sulfamoyl)pyridin-2-yl)-3-methylpiperidine-3-carboxylic Acid] | –
– | – | 1050 nM | – | CCc1ccccc1-c1nc(NS(=O)(=O)c2cccc(N3CCC[C@@](C)(C(=O)O)C3)n2)ccc1C(F)(F)F [Example 394, (R)-1-(6-(N-(6-(2-ethylphenyl)-5-(trifluoromethyl)pyridin-2-yl)sulfamoyl)pyridin-2-yl)-3-methylpiperidine-3-carboxylic Acid] | –

Source: US11066369B2, “N-(pyridin-2-yl)pyridine-sulfonamide derivatives and their use in the treatment of disease” (Novartis AG, priority 2016, dated 2021)
